Test system: rice
Assay: Test Example 1: foliage treatment, upland pot test
Assay type: in vivo, Oryza sativa L.
Conditions: crop, active ingredient 500 g/ha, observed 18th to 23rd day, 0 = non-treated, 100 = complete kill
Outline: (§1)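 Upland pot test, foliar. Soybean 0.1–0.4 / wheat 1.3–2.4 / rice 1.2–2.6 / barnyardgrass 1.3–2.8 leaf stage at spraying; 500 L/ha carrier, 0.1% (v/v) spreader. Visual % control, 0 untreated to 100 dead, days 18–23.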

SMILES	Growth controlling degree (%) Rice [%]
CC(C)C(c1cnccc1C(F)(F)F)N(C)C(=O)C=Cc1ccc(C(F)(F)F)cc1 (stereo not drawn) [I-186]	10
C=CC(=O)N(C)C(c1cnccc1C(F)(F)F)C(C)C (stereo not drawn) [I-190]	70

Test system: prickly sida
Assay: Test Example 1: foliage treatment, upland pot test
Assay type: in vivo, Sida spinosa L.
Conditions: active ingredient 500 g/ha, observed 18th to 23rd day, 0 = non-treated, 100 = complete kill

SMILES	Growth controlling degree (%) Prickly sida [%]
CC(C)C(c1cnccc1C(F)(F)F)N(C)C(=O)C=Cc1ccc(C(F)(F)F)cc1 (stereo not drawn) [I-186]	60
C=CC(=O)N(C)C(c1cnccc1C(F)(F)F)C(C)C (stereo not drawn) [I-190]	70

Test system: corn
Assay: Test Example 1: foliage treatment, upland pot test
Assay type: in vivo, Zea mays L.
Conditions: crop, active ingredient 500 g/ha, observed 18th to 23rd day, 0 = non-treated, 100 = complete kill
Outline: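 In this upland pot foliage test, corn plants at 2.1 to 3.2 leaf stages were sprayed by a small size sprayer. The spray was a conventionally formulated wettable powder or emulsifiable concentrate weighed to a set active ingredient amount, diluted in water at 500 L/ha, plus 0.1% (v/v) agricultural spreader. Visual assessment on days 18 to 23 gave growth controlling degree (%), where 0 equals untreated and 100 means complete kill.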

SMILES	Growth controlling degree (%) Corn [%]
CC(C)C(c1cnccc1C(F)(F)F)N(C)C(=O)C=Cc1ccc(C(F)(F)F)cc1 (stereo not drawn) [I-186]	50
C=CC(=O)N(C)C(c1cnccc1C(F)(F)F)C(C)C (stereo not drawn) [I-190]	70

Test system: wheat
Assay: Test Example 1: foliage treatment, upland pot test
Assay type: in vivo, Triticum spp.
Conditions: crop, active ingredient 500 g/ha, observed 18th to 23rd day, 0 = non-treated, 100 = complete kill
Excerpt: Upland field soil was put into a 1/170,000 ha pot, and seed of various plants were sown. Then, when the plants reached predetermined leaf stages ((1) barnyardgrass: 1.3 to 2.8 leaf stages, (2) crabgrass: 1.0 to 2.8 leaf stages, (3) green foxtail: 1.3 to 2.6 leaf stages, (4) redroot pigweed: 0.1 to 1.2 leaf stages, (5) prickly sida: 0.1 to 1.2 leaf stages, (6) velvetleaf: 0.1 to 1.2 leaf stages, (7) tall morningglory: 0.1 to 1.5 leaf stages, (8) rice: 1.2 to 2.6 leaf stages, (9) wheat: 1.3 to 2.4 leaf stages, (10) corn, 2.1 to 3.2 leaf stages, (11) soybean: 0.1 to 0.4 leaf stage), a wettable powder or emulsifiable concentrate having the compound of the present invention formulated in accordance with a usual formulation method, was weighed so that the active ingredient would be a predetermined amount, and diluted with water in an amount of 500 L/ha. To the diluted solution, 0.1% (v/v) of agricultural spreader was added. The herbicide thus adjusted was applied by a small size sprayer for foliage treatment. On the 18th to 23rd days after the application of the herbicide, the growth of the respective plants was visually observed, and the herbicidal effects were evaluated by the growth controlling degrees (%) ranging from 0 (equivalent to the non-treated plot) to 100 (complete kill), whereby the results shown in Table 3, were obtained.

SMILES	Growth controlling degree (%) wheat [%]
CC(C)C(c1cnccc1C(F)(F)F)N(C)C(=O)C=Cc1ccc(C(F)(F)F)cc1 (stereo not drawn) [I-186]	60
C=CC(=O)N(C)C(c1cnccc1C(F)(F)F)C(C)C (stereo not drawn) [I-190]	70

Test system: crabgrass
Assay: Test Example 1: foliage treatment, upland pot test
Assay type: in vivo, Digitaria sanguinalis L.
Conditions: active ingredient 500 g/ha, observed 18th to 23rd day, 0 = non-treated, 100 = complete kill

SMILES	Growth controlling degree (%) Crabgrass [%]
CC(C)C(c1cnccc1C(F)(F)F)N(C)C(=O)C=Cc1ccc(C(F)(F)F)cc1 (stereo not drawn) [I-186]	60
C=CC(=O)N(C)C(c1cnccc1C(F)(F)F)C(C)C (stereo not drawn) [I-190]	80

Test system: japanese bulrush
Assay: Test Example 3: paddy pot test, application under submerged conditions
Assay type: in vivo, Scirpus juncoides
Conditions: active ingredient 500 g/ha; submerged application at 0.5 leaf stage; visually observed 14 days after application; 0 = non-treated, 100 = complete kill
Outline: (§2)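 Visual growth-control rating (0 = untreated, 100 = complete kill) 14 days after treatment. The formulated compound, as a diluted wettable powder or emulsifiable concentrate, went into 3–4 cm flood water at a predetermined active-ingredient dose once the weeds reached 0.5 leaf stage (wapato: primary leaf stage).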

SMILES	Growth controlling degree (%) Japanese bulrush [%]
CC(C)C(c1cnccc1C(F)(F)F)N(C)C(=O)C=Cc1ccc(C(F)(F)F)cc1 (stereo not drawn) [I-186]	95
C=CC(=O)N(C)C(c1cnccc1C(F)(F)F)C(C)C (stereo not drawn) [I-190]	98

Test system: japanese ribbon wapato
Assay: as above
Assay type: in vivo, Sagittaria pygniaea
Conditions: active ingredient 500 g/ha; submerged application at primary leaf stage; visually observed 14 days after application; 0 = non-treated, 100 = complete kill
Outline: as §2

SMILES	Growth controlling degree (%) Japanese ribbon wapato [%]
C=CC(=O)N(C)C(c1cnccc1C(F)(F)F)C(C)C (stereo not drawn) [I-190]	90

Test system: crabgrass
Assay: Test Example 2: soil surface treatment, upland pot test
Assay type: in vivo, Digitaria sanguinalis L.
Conditions: active ingredient 500 g/ha, observed 20th to 28th day
Outline: (§3)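 Upland soil in pots of 1/170,000 ha is sown; on day 1 after sowing the formulated compound (wettable powder or emulsifiable concentrate, predetermined a.i. amount, water volume 1,500 L/ha) is applied to the soil surface with a small sprayer. Percent control is judged by eye 20–28 days later.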

SMILES	Growth controlling degree (%) Crabgrass [%]
CC(C)C(c1cnccc1C(F)(F)F)N(C)C(=O)C=Cc1ccc(C(F)(F)F)cc1 (stereo not drawn) [I-186]	98
C=CC(=O)N(C)C(c1cnccc1C(F)(F)F)C(C)C (stereo not drawn) [I-190]	100

Test system: redroot pigweed
Assay: as above
Assay type: in vivo, Amaranthus retroflexus L.
Conditions: active ingredient 500 g/ha, observed 20th to 28th day
Outline: as §3

SMILES	Growth controlling degree (%) Redroot pigweed [%]
CC(C)C(c1cnccc1C(F)(F)F)N(C)C(=O)C=Cc1ccc(C(F)(F)F)cc1 (stereo not drawn) [I-186]	40
C=CC(=O)N(C)C(c1cnccc1C(F)(F)F)C(C)C (stereo not drawn) [I-190]	80

Test system: redroot pigweed
Assay: Test Example 1: foliage treatment, upland pot test
Assay type: in vivo, Amaranthus retroflexus L.
Conditions: active ingredient 500 g/ha, observed 18th to 23rd day, 0 = non-treated, 100 = complete kill

SMILES	Growth controlling degree (%) Redroot pigweed [%]
CC(C)C(c1cnccc1C(F)(F)F)N(C)C(=O)C=Cc1ccc(C(F)(F)F)cc1 (stereo not drawn) [I-186]	50
C=CC(=O)N(C)C(c1cnccc1C(F)(F)F)C(C)C (stereo not drawn) [I-190]	70

Test system: barnyardgrass
Assay: Test Example 3: paddy pot test, application under submerged conditions
Assay type: in vivo, Echinochloa crus-galli L.
Conditions: active ingredient 500 g/ha; submerged application at 0.5 leaf stage; visually observed 14 days after application; 0 = non-treated, 100 = complete kill
Outline: as §2

SMILES	Growth controlling degree (%) Barnyardgrass [%]
CC(C)C(c1cnccc1C(F)(F)F)N(C)C(=O)C=Cc1ccc(C(F)(F)F)cc1 (stereo not drawn) [I-186]	98
C=CC(=O)N(C)C(c1cnccc1C(F)(F)F)C(C)C (stereo not drawn) [I-190]	100

Test system: rice (var. Nihonbare)
Assay: Test Example 3: paddy pot test, transplanted rice
Assay type: in vivo, Oryza sativa L.
Conditions: active ingredient 500 g/ha, applied 4th day after transplantation, visually observed 21st day after application, 0 = non-treated, 100 = complete kill
Outline: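 Rice (var. Nihonbare) at 2 leaf stage transplanted 3 cm deep into puddled paddy soil under 3–4 cm flooding; on day 4 after transplanting, diluted wettable powder or emulsifiable concentrate applied by pipette under submerged conditions at a set active-ingredient dose. Growth scored visually 21 days after application, 0 (untreated) to 100 (complete kill) %.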

SMILES	Growth controlling degree (%) Rice [%]
CC(C)C(c1cnccc1C(F)(F)F)N(C)C(=O)C=Cc1ccc(C(F)(F)F)cc1 (stereo not drawn) [I-186]	10
C=CC(=O)N(C)C(c1cnccc1C(F)(F)F)C(C)C (stereo not drawn) [I-190]	95

Test system: green foxtail
Assay: Test Example 1: foliage treatment, upland pot test
Assay type: in vivo, Setaria viridis L.
Conditions: active ingredient 500 g/ha, observed 18th to 23rd day, 0 = non-treated, 100 = complete kill

SMILES	Growth controlling degree (%) Green foxtail [%]
CC(C)C(c1cnccc1C(F)(F)F)N(C)C(=O)C=Cc1ccc(C(F)(F)F)cc1 (stereo not drawn) [I-186]	40
C=CC(=O)N(C)C(c1cnccc1C(F)(F)F)C(C)C (stereo not drawn) [I-190]	80

Test system: barnyardgrass
Assay: Test Example 2: soil surface treatment, upland pot test
Assay type: in vivo, Echinochloa crus-galli L.
Conditions: active ingredient 500 g/ha, observed 20th to 28th day
Outline: as §3

SMILES	Growth controlling degree (%) Barnyardgrass [%]
CC(C)C(c1cnccc1C(F)(F)F)N(C)C(=O)C=Cc1ccc(C(F)(F)F)cc1 (stereo not drawn) [I-186]	40
C=CC(=O)N(C)C(c1cnccc1C(F)(F)F)C(C)C (stereo not drawn) [I-190]	100

Test system: corn
Assay: as above
Assay type: in vivo, Zea mays L.
Conditions: active ingredient 500 g/ha, observed 20th to 28th day
Outline: as §3

SMILES	Growth controlling degree (%) Corn [%]
CC(C)C(c1cnccc1C(F)(F)F)N(C)C(=O)C=Cc1ccc(C(F)(F)F)cc1 (stereo not drawn) [I-186]	30
C=CC(=O)N(C)C(c1cnccc1C(F)(F)F)C(C)C (stereo not drawn) [I-190]	10

Test system: rice
Assay: as above
Assay type: in vivo, Oryza sativa L.
Conditions: active ingredient 500 g/ha, observed 20th to 28th day
Outline: as §3

SMILES	Growth controlling degree (%) Rice [%]
CC(C)C(c1cnccc1C(F)(F)F)N(C)C(=O)C=Cc1ccc(C(F)(F)F)cc1 (stereo not drawn) [I-186]	20
C=CC(=O)N(C)C(c1cnccc1C(F)(F)F)C(C)C (stereo not drawn) [I-190]	98

Test system: soybean
Assay: Test Example 1: foliage treatment, upland pot test
Assay type: in vivo, Glycine max Merr.
Conditions: crop, active ingredient 500 g/ha, observed 18th to 23rd day, 0 = non-treated, 100 = complete kill
Outline: as §1

SMILES	Growth controlling degree (%) Soybean [%]
CC(C)C(c1cnccc1C(F)(F)F)N(C)C(=O)C=Cc1ccc(C(F)(F)F)cc1 (stereo not drawn) [I-186]	70
C=CC(=O)N(C)C(c1cnccc1C(F)(F)F)C(C)C (stereo not drawn) [I-190]	60

Test system: soybean
Assay: Test Example 2: soil surface treatment, upland pot test
Assay type: in vivo, Glycine max Merr.
Conditions: active ingredient 500 g/ha, observed 20th to 28th day
Outline: as §3

SMILES	Growth controlling degree (%) Soyabean [%]
CC(C)C(c1cnccc1C(F)(F)F)N(C)C(=O)C=Cc1ccc(C(F)(F)F)cc1 (stereo not drawn) [I-186]	0
C=CC(=O)N(C)C(c1cnccc1C(F)(F)F)C(C)C (stereo not drawn) [I-190]	30

Test system: green foxtail
Assay: as above
Assay type: in vivo, Setaria viridis L.
Conditions: active ingredient 500 g/ha, observed 20th to 28th day
Outline: as §3

SMILES	Growth controlling degree (%) Green foxtail [%]
CC(C)C(c1cnccc1C(F)(F)F)N(C)C(=O)C=Cc1ccc(C(F)(F)F)cc1 (stereo not drawn) [I-186]	100
C=CC(=O)N(C)C(c1cnccc1C(F)(F)F)C(C)C (stereo not drawn) [I-190]	100

Test system: velvetleaf
Assay: Test Example 1: foliage treatment, upland pot test
Assay type: in vivo, Abutilon theophrasti MEDIC.
Conditions: active ingredient 500 g/ha, observed 18th to 23rd day, 0 = non-treated, 100 = complete kill

SMILES	Growth controlling degree (%) Velvetleaf [%]
CC(C)C(c1cnccc1C(F)(F)F)N(C)C(=O)C=Cc1ccc(C(F)(F)F)cc1 (stereo not drawn) [I-186]	60
C=CC(=O)N(C)C(c1cnccc1C(F)(F)F)C(C)C (stereo not drawn) [I-190]	60

Test system: barnyardgrass
Assay: Test Example 1: foliage treatment, upland pot test
Assay type: in vivo, Echinochloa crus-galli L.
Conditions: active ingredient 500 g/ha, observed 18th to 23rd day, 0 = non-treated, 100 = complete kill
Outline: as §1

SMILES	Growth controlling degree (%) Barnyardgrass [%]
CC(C)C(c1cnccc1C(F)(F)F)N(C)C(=O)C=Cc1ccc(C(F)(F)F)cc1 (stereo not drawn) [I-186]	50
C=CC(=O)N(C)C(c1cnccc1C(F)(F)F)C(C)C (stereo not drawn) [I-190]	80

Test system: velvetleaf
Assay: Test Example 2: soil surface treatment, upland pot test
Assay type: in vivo, Abutilon theophrasti MEDIC.
Conditions: active ingredient 500 g/ha, observed 20th to 28th day
Outline: as §3

SMILES	Growth controlling degree (%) Velvetleaf [%]
CC(C)C(c1cnccc1C(F)(F)F)N(C)C(=O)C=Cc1ccc(C(F)(F)F)cc1 (stereo not drawn) [I-186]	0
C=CC(=O)N(C)C(c1cnccc1C(F)(F)F)C(C)C (stereo not drawn) [I-190]	50

Test system: prickly sida
Assay: as above
Assay type: in vivo, Sida spinosa L.
Conditions: active ingredient 500 g/ha, observed 20th to 28th day
Outline: as §3

SMILES	Growth controlling degree (%) Prickly sida [%]
CC(C)C(c1cnccc1C(F)(F)F)N(C)C(=O)C=Cc1ccc(C(F)(F)F)cc1 (stereo not drawn) [I-186]	10
C=CC(=O)N(C)C(c1cnccc1C(F)(F)F)C(C)C (stereo not drawn) [I-190]	90

Source: US20050239656A1, “Pyridine compounds or salts thereof and herbicides containing the same” (priority 2002, published 2005)
